US8796330B2, “Inhibitors of histone deacetylase and prodrugs thereof” (Methylgene Inc., priority 2006, dated 2014)

The compounds below were run on histone deacetylase in nuclear extracts from H446 cells (pooled HDACs) (assay: Inhibition of histone deacetylase in H446 nuclear extracts ([3H]-acetylated histone substrate)). Conditions: not given.
Format: biochemical, human
`O=C(NO)c1ccc(CCSc2ccccc2)cc1` [Compound 70, N-Hydroxy-4-(2-thiophenyl)-ethyl benzamide] was tested, and the IC50 was 5.5 µM.
In the case of `O=C(NO)c1ccc(CCS(=O)(=O)c2ccccc2)cc1` [Compound 73, N-Hydroxy-4-(2-benzenesulfonyl)-ethyl benzamide], the “pooled HDACs percent inhibition” value is reported as 35% @ 20 μM.

Same assay, conditions: H446 nuclear extract
`O=C(Cc1ccc(NS(=O)(=O)c2cc3ccccc3s2)cc1)NO` [Compound 4] showed an IC50 of 7 µM.
In the case of `O=C(Cc1ccc(NS(=O)(=O)c2ccccc2[N+](=O)[O-])cc1)NO` [Compound 7, 2-[4-(2-nitrobenzenesulfonylamino)-phenyl]-N-hydroxy-acetamide], the IC50 is reported as 70 µM.
`O=C(Cc1ccc(NS(=O)(=O)c2cc(Cl)ccc2Cl)cc1)NO` [Compound 8, 2-[4-(2,5-dichlorobenzenesulfonylamino)-phenyl]-N-hydroxy-acetamide] was tested, and the IC50 was 15 µM.
For `Cc1ccc(S(=O)(=O)Nc2ccc(CC(=O)NO)cc2)cc1` [Compound 9, 2-[4-(4-methylbenzenesulfonylamino)-phenyl]-N-hydroxy-acetamide], the IC50 was 9 µM.
`O=C(Cc1ccc(NS(=O)(=O)c2cccc(C(F)(F)F)c2)cc1)NO` [Compound 10, 2-[4-(3-trifluoromethylbenzenesulfonylamino)-phenyl]-N-hydroxy acetamide] was tested, and the IC50 was 30 µM.
In the case of `O=C(NO)c1ccc(NS(=O)(=O)c2cc3ccccc3s2)cc1` [Compound 13], the IC50 is reported as 0.9 µM.
In the case of `O=C(Cc1ccc(NS(=O)(=O)c2ccc(Cl)c(Cl)c2)cc1)NO` [Compound 15, 2-[4-(3,4-dichlorobenzenesulfonylamino)-phenyl]-N-hydroxy-acetamide], the IC50 is reported as 25 µM.
`O=C(Cc1ccc(NS(=O)(=O)c2cccc3cccnc23)cc1)NO` [Compound 18, 2-[4-(8-quinolinesulfonylamino)-phenyl]-N-hydroxy-acetamide] showed an IC50 of 160 µM.
In the case of `O=C(Cc1ccc(NS(=O)(=O)c2ccc(Br)cc2)cc1)NO` [Compound 19, 2-[4-(4-bromobenzenesulfonylamino)-phenyl]-N-hydroxy-acetamide], the IC50 is reported as 20 µM.
`O=C(CCCCc1cccc(NS(=O)(=O)c2ccccc2)c1)NO` [Compound 26] was tested, and the IC50 was under 20 µM.
In the case of `O=C(/C=C/C#Cc1ccc(NS(=O)(=O)c2ccccc2)cc1)NO` [Compound 32, N-Hydroxy-5-[4-(benzenesulfonylamino)-phenyl]-4-yn-2-pentanamide], the IC50 is reported as under 20 µM.
`O=C(CCCCc1ccc(NS(=O)(=O)c2ccccc2)cc1)NO` [Compound 34] was tested, and the IC50 was 2 µM.
For `O=C(CCc1ccc(NS(=O)(=O)c2ccccc2)cc1)NO` [Compound 38, N-Hydroxy-3-[4-(benzenesulfonylamino)-phenyl]-2-propanamide], the IC50 was 0.75 µM.
`O=C(/C=C/c1ccc(C(=O)NO)cc1)c1ccccc1` [Compound 45, N-Hydroxy-4-(3-oxo-3-phenylpropenyl)-benzamide] was tested, and the IC50 was 4 µM.
In the case of `O=C(CCc1ccc(C(=O)NO)cc1)c1ccccc1` [Compound 50, N-Hydroxy-4-(3-oxo-3-phenylpropyl)-benzamide], the IC50 is reported as 5 µM.
`O=C(CC(O)c1ccc(C(=O)NO)cc1)c1ccccc1` (centres unmarked) [Compound 53, N-Hydroxy-4-(3-oxo-3-phenyl-1-hydroxypropyl)-benzamide] was tested, and the IC50 was 25 µM.
For `O=C(NO)c1ccc(CCCc2ccccc2)cc1` [Compound 56, N-Hydroxy-4-(3-phenylpropyl)-benzamide], the IC50 was 15 µM.
In the case of `O=C(NO)c1ccc(CCCCc2ccccc2)cc1` [Compound 61, N-Hydroxy-4-(4-phenylbutyl)-benzamide], the IC50 is reported as 4 µM.
With `CC(C)C(Cc1ccc(NS(=O)(=O)c2ccccc2)cc1)C(=O)NO` (centres unmarked) [Compound 81] the IC50 was over 50 µM.
In the case of `O=C(/C=C/c1ccc(NS(=O)(=O)c2cccs2)cc1)NO` [Compound 87], the IC50 is reported as 3 µM.
For `O=C(/C=C/c1ccc(NS(=O)(=O)c2cccc3ccccc23)cc1)NO` [Compound 93], the IC50 was 0.35 µM.
Compound `O=C(/C=C/c1ccc(NS(=O)(=O)c2ccc3ccccc3c2)cc1)NO` [Compound 94] has an IC50 of 0.4 µM.
Compound `O=C(/C=C/c1ccc(NS(=O)(=O)c2cc3ccccc3s2)cc1)NO` [Compound 95] has an IC50 of 0.8 µM.
`CN(C)c1cccc2c(S(=O)(=O)Nc3ccc(/C=C/C(=O)NO)cc3)cccc12` [Compound 97] showed an IC50 of 0.8 µM.
With `O=C(/C=C/c1ccc(NS(=O)(=O)c2cccc3cccnc23)cc1)NO` [Compound 99] the IC50 was 0.9 µM.
Compound `O=C(/C=C/c1ccc(NS(=O)(=O)Cc2ccccc2)cc1)NO` [Compound 100] has an IC50 of 0.8 µM.
With `O=C(/C=C/c1ccc(NS(=O)(=O)c2ccc3oc4ccccc4c3c2)cc1)NO` [Compound 101] the IC50 was 0.3 µM.
In the case of `O=C(/C=C/c1ccc(NS(=O)(=O)c2ccc(-c3cccs3)s2)cc1)NO` [Compound 103], the IC50 is reported as 0.7 µM.
`O=C(/C=C/c1ccc(NS(=O)(=O)c2ccc(Cl)cc2Cl)cc1)NO` [Compound 106] gave an IC50 of 0.8 µM.
`O=C(/C=C/c1ccc(CC(O)c2ccccc2)o1)NO` (centres unmarked) [Compound 136] showed an IC50 of 9 µM.
`O=C(/C=C/c1ccc(NC(=O)Nc2ccc(Cl)cc2)cc1)NO` [Compound 145] showed an IC50 of 3.8 µM.
For `O=C(/C=C/c1ccc(NC(=O)Nc2cccc3ccccc23)cc1)NO` [Compound 146], the IC50 was 2.9 µM.
For `COc1ccc(NC(=O)Nc2ccc(/C=C/C(=O)NO)cc2)cc1OC` [Compound 147], the IC50 was 1.9 µM.
In the case of `O=C(NO)c1ccc(CCCS(=O)(=O)c2ccccc2)cc1` [Compound 148], the IC50 is reported as 5 µM.
In the case of `O=C(NO)c1ccc(CCc2ccccc2)cc1` [Compound 150], the IC50 is reported as 10 µM.
Work on `O=C(NO)c1ccc(/C=C/c2ccccc2)cc1` [Compound 151] yielded an IC50 of 7.5 µM.
Compound `O=C(NO)c1ccc(CCCCCc2ccccc2)cc1` [Compound 153] has an IC50 of 5 µM.
`O=C(CCCc1ccc(CCCCc2ccccc2)cc1)NO` [Compound 156] showed an IC50 of 5 µM.
`O=C(CCc1ccc(CCc2ccccc2)cc1)NO` [Compound 157] showed an IC50 of 6 µM.
`O=C(Cc1ccc(CCCS(=O)(=O)c2ccccc2)cc1)NO` [Compound 158] showed an IC50 of over 20 µM.
`CN(C)c1ccc(CCc2ccc(C(=O)NO)s2)cc1` [Compound 171] was tested, and the IC50 was 20 µM.
`CN(C)c1ccc(CCc2ccc(C(=O)NO)cc2)cc1` [Compound 172] gave an IC50 of 10 µM.
`O=C(Cc1ccc(CCCCc2ccccc2)cc1)NO` [Compound 174, N-hydroxy-2-(4-(4-phenylbutyl)phenyl)acetamide] was tested, and the IC50 was over 20 µM.
`O=C(Cc1ccc(CCCc2ccccc2)cc1)NO` [Compound 175] gave an IC50 of over 2 µM.

Same assay, conditions: H446 nuclear extract; @ 1 μM
In the case of `Cc1ccc(S(=O)(=O)Nc2ccc(/C=C/C(=O)NO)cc2)cc1` [Compound 108], the “pooled HDACs percent inhibition” value is reported as 10% @ 1 μM.

Same assay, conditions: H446 nuclear extract; @ 5 μM
`O=C(/C=C/c1ccc(NS(=O)(=O)c2ccccn2)cc1)NO` [Compound 96] was tested, and the “pooled HDACs percent inhibition” value was 33% @ 5 μM.
With `O=C(/C=C/c1ccc(NS(=O)(=O)c2cccnc2)cc1)NO` [Compound 104] the “pooled HDACs percent inhibition” value was 21% @ 5 μM.

Same assay, conditions: H446 nuclear extract; @ 20 μM
In the case of `O=C(NO)c1cccc(CCc2ccccc2)c1` [Compound 68, N-Hydroxy-3-(2-phenylethyl)-benzamide], the “pooled HDACs percent inhibition” value is reported as 3% @ 20 μM.
`O=C(NO)c1ccc(CC[S+]([O-])c2ccccc2)cc1` (centres unmarked) [Compound 71, N-Hydroxy-4-(2-benzenesulfoxide)-ethyl benzamide] was tested, and the “pooled HDACs percent inhibition” value was 44% @ 20 μM.
With `Nc1ccccc1NC(=O)/C=C/c1ccc(CC(=O)c2ccccc2)o1` [Compound 139] the “pooled HDACs percent inhibition” value was 44% @ 20 μM.
For `O=C(CCc1ccc(CC(=O)c2ccccc2)o1)NO` [Compound 143], the “pooled HDACs percent inhibition” value was 55% @ 20 μM.
For `Nc1ccccc1NC(=O)CCc1ccc(CC(=O)c2ccccc2)o1` [Compound 144], the “pooled HDACs percent inhibition” value was 6% @ 20 μM.
With `O=C(NO)c1ccc(CCCC(O)c2ccc3ccccc3c2)cc1` (centres unmarked) [Compound 149] the “pooled HDACs percent inhibition” value was 8% @ 20 μM.
`O=C(CCCc1ccc(CCCc2ccccc2)cc1)NO` [Compound 155] was tested, and the “pooled HDACs percent inhibition” value was 39% @ 20 μM.
In the case of `Nc1ccccc1NC(=O)/C=C/C#Cc1cccc(NS(=O)(=O)c2ccccc2)c1` [Compound 168], the “pooled HDACs percent inhibition” value is reported as 0% @ 20 μM.
With `CN(C)c1ccc(CCc2ccccc2C(=O)NO)cc1` [Compound 173] the “pooled HDACs percent inhibition” value was 35% @ 20 μM.
`O=C(CCC1CCC(CC(=O)c2ccccc2)O1)NO` (centres unmarked) [Compound 176] was tested, and the “pooled HDACs percent inhibition” value was 20% @ 20 μM.
For `O=C(CCCc1ccc(C(=O)NO)cc1)c1ccccc1` [Compound 177], the “pooled HDACs percent inhibition” value was 10% @ 20 μM.

Same assay, conditions: H446 nuclear extract; @ 100 μM
`O=C(Cc1cccc(NS(=O)(=O)c2cc3ccccc3s2)c1)NO` [Compound 14] was tested, and the “pooled HDACs percent inhibition” value was 36% @ 100 μM.
`O=C(Cc1ccc(NS(=O)(=O)c2cccs2)cc1)NO` [Compound 16, 2-[4-(2-Thiophenesulfonylamino)-phenyl]-N-hydroxy-acetamide] was tested, and the “pooled HDACs percent inhibition” value was 38% 100 μM.
For `O=C(Cc1ccc(NS(=O)(=O)c2cccc([N+](=O)[O-])c2)cc1)NO` [Compound 17, 2-[4-(3-nitrobenzenesulfonylamino)-phenyl]-N-hydroxy-acetamide], the “pooled HDACs percent inhibition” value was 47% 100 μM.
In the case of `O=C(NO)c1cccc(CCCc2ccccc2)c1` [Compound 64, N-Hydroxy-3-(3-phenylpropyl)-benzamide], the “pooled HDACs percent inhibition” value is reported as 12% @ 100 μM.

These compounds were tested against recombinant human HDAC-1 enzyme (rHDAC-1) (Homo sapiens (Human), UniProt Q13547) (assay: Inhibition of recombinant human HDAC-1 ([3H]-acetylated histone substrate)). Conditions: not given.
Sequence of recombinant human HDAC-1 enzyme (rHDAC-1) (Q13547 whole entry): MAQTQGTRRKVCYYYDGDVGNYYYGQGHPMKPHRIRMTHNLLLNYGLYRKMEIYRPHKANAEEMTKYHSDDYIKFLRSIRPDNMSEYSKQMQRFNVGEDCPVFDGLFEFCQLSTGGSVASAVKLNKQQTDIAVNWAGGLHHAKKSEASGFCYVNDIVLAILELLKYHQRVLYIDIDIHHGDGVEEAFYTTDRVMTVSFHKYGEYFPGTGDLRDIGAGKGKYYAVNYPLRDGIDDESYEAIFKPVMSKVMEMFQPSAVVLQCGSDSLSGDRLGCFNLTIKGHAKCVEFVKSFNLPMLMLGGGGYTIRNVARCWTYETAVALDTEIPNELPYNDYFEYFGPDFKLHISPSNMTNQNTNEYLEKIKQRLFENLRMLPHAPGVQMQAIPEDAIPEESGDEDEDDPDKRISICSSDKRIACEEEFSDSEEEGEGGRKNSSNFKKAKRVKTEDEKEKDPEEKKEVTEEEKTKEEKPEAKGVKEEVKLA
Format: biochemical
`O=C(NO)c1ccc(CCSc2ccccc2)cc1` [Compound 70, N-Hydroxy-4-(2-thiophenyl)-ethyl benzamide] was tested, and the IC50 was 0.9 µM.

Same assay, conditions: Table 4, recombinant human HDAC-1
`O=C(CCCCc1ccc(NS(=O)(=O)c2ccccc2)cc1)NO` [Compound 34] showed an IC50 of 0.3 µM.
`O=C(CCc1ccc(NS(=O)(=O)c2ccccc2)cc1)NO` [Compound 38, N-Hydroxy-3-[4-(benzenesulfonylamino)-phenyl]-2-propanamide] was tested, and the IC50 was 0.1 µM.
In the case of `O=C(CCc1ccc(CCCc2ccccc2)cc1)NO` [Compound 77, N-Hydroxy-3-[4-(3-phenylpropyl)-phenyl]-propanamide], the IC50 is reported as 0.65 µM.
Work on `CC(C)C(Cc1ccc(NS(=O)(=O)c2ccccc2)cc1)C(=O)NO` (centres unmarked) [Compound 81] yielded an IC50 of over 25 µM.
`O=C(/C=C/c1ccc(NS(=O)(=O)c2cccs2)cc1)NO` [Compound 87] showed an IC50 of 0.6 µM.
`O=C(/C=C/c1ccc(NS(=O)(=O)c2ccc3ccccc3c2)cc1)NO` [Compound 94] gave an IC50 of 0.03 µM.
`O=C(/C=C/c1ccc(NS(=O)(=O)c2cc3ccccc3s2)cc1)NO` [Compound 95] showed an IC50 of 0.2 µM.
Compound `CN(C)c1cccc2c(S(=O)(=O)Nc3ccc(/C=C/C(=O)NO)cc3)cccc12` [Compound 97] has an IC50 of 0.28 µM.
In the case of `COc1ccc(NS(=O)(=O)c2ccc(/C=C/C(=O)NO)cc2)cc1OC` [Compound 98], the IC50 is reported as 0.06 µM.
Compound `O=C(/C=C/c1ccc(NS(=O)(=O)Cc2ccccc2)cc1)NO` [Compound 100] has an IC50 of 0.75 µM.
For `O=C(/C=C/c1ccc(NS(=O)(=O)c2ccc3oc4ccccc4c3c2)cc1)NO` [Compound 101], the IC50 was 0.04 µM.
With `O=C(/C=C/c1ccc(NS(=O)(=O)c2ccc(-c3cccs3)s2)cc1)NO` [Compound 103] the IC50 was 0.05 µM.
`O=C(/C=C/c1ccc(NS(=O)(=O)c2ccc(Cl)cc2Cl)cc1)NO` [Compound 106] was tested, and the IC50 was 0.3 µM.
In the case of `Cc1ccc(S(=O)(=O)Nc2ccc(/C=C/C(=O)NO)cc2)cc1` [Compound 108], the IC50 is reported as 0.3 µM.
With `COc1ccc(S(=O)(=O)Nc2ccc(/C=C/C(=O)Nc3ccccc3N)cc2)cc1OC` [Compound 116] the IC50 was 4 µM.
Work on `Nc1ccccc1NC(=O)/C=C/c1ccc(NS(=O)(=O)c2ccc(-c3ccccc3)cc2)cc1` [Compound 123] yielded an IC50 of 1 µM.
`Nc1ccccc1NC(=O)C#Cc1ccc(NS(=O)(=O)c2ccc(-c3ccccc3)cc2)cc1` [Compound 129] showed an IC50 of 3 µM.
`O=C(/C=C/c1ccc(S(=O)(=O)Nc2ccc(-c3ccccc3)cc2)cc1)NO` [Compound 162] showed an IC50 of 0.04 µM.
